From PMC9516332 (Frontiers in Oncology, 2022)
Like-named read-outs stand apart in the source and are kept apart here.

Tested on: 134 cancer cell lines
Assay: Cell viability assay (ATPlite, 72 hours), IC50 on cancer cell line panel

`CCn1c(=O)c(-c2cc(NC(=O)Nc3ccccc3)c(F)cc2Br)cc2cnc(NC)cc21` [ripretinib] showed an IC50 (Homo sapiens, LNCaP-Clone-FGC, read-out: IC50 in cell proliferation assay) of 4.88 µM, an IC50 (Homo sapiens, LS174T, read-out: IC50 in cell proliferation assay) of 9.31 µM and an IC50 (Homo sapiens, LS-411N, read-out: IC50 in cell proliferation assay) of 2.72 µM. For the same compound, the IC50 (Homo sapiens, LoVo, read-out: IC50 in cell proliferation assay) was 3.04 µM, the IC50 (Homo sapiens, MCF7, read-out: IC50 in cell proliferation assay) was > 31.6 µM and the IC50 (Homo sapiens, MDA-MB-231, read-out: IC50 in cell proliferation assay) was 1.26 µM. It also gave an IC50 (Homo sapiens, MDA-MB-453, read-out: IC50 in cell proliferation assay) of 3.53 µM, an IC50 (Homo sapiens, MDA-MB-468, read-out: IC50 in cell proliferation assay) of 2.47 µM and an IC50 (Homo sapiens, MG-63, read-out: IC50 in cell proliferation assay) of 12.3 µM. For the same compound, the IC50 (Homo sapiens, MIA PaCa-2, read-out: IC50 in cell proliferation assay) was 24.2 µM, the IC50 (Homo sapiens, MKN-45, read-out: IC50 in cell proliferation assay) was > 31.6 µM and the IC50 (Homo sapiens, MOLM-13, read-out: IC50 in cell proliferation assay) was 0.238 µM. It also gave an IC50 (Homo sapiens, MOLT-4, read-out: IC50 in cell proliferation assay) of 3.83 µM, an IC50 (Homo sapiens, MV4-11, read-out: IC50 in cell proliferation assay) of 0.578 µM and an IC50 (Homo sapiens, MeWo, read-out: IC50 in cell proliferation assay) of 3.58 µM. For the same compound, the IC50 (Homo sapiens, NCCIT, read-out: IC50 in cell proliferation assay) was 1.73 µM, the IC50 (Homo sapiens, NCI-H82, read-out: IC50 in cell proliferation assay) was 1.11 µM and the IC50 (Homo sapiens, NCI-H460, read-out: IC50 in cell proliferation assay) was 1.62 µM. The IC50 (Homo sapiens, NCI-H661, read-out: IC50 in cell proliferation assay) was 11.8 µM, the IC50 (Homo sapiens, NCI-H716, read-out: IC50 in cell proliferation assay) was 1.44 µM and the IC50 (Homo sapiens, NCI-H1650, read-out: IC50 in cell proliferation assay) was > 31.6 µM. For the same compound, the IC50 (Homo sapiens, NCI-H1975, read-out: IC50 in cell proliferation assay) was 2.17 µM, the IC50 (Homo sapiens, NCI-H2228, read-out: IC50 in cell proliferation assay) was 4.14 µM and the IC50 (Homo sapiens, OVCAR-3, read-out: IC50 in cell proliferation assay) was 2 µM. The IC50 (Homo sapiens, PFSK-1, read-out: IC50 in cell proliferation assay) was 8 µM, the IC50 (Homo sapiens, RL95-2, read-out: IC50 in cell proliferation assay) was 1.13 µM and the IC50 (Homo sapiens, RPMI-7951, read-out: IC50 in cell proliferation assay) was 6.45 µM. For the same compound, the IC50 (Homo sapiens, RS4-11, read-out: IC50 in cell proliferation assay) was 1.17 µM, the IC50 (Homo sapiens, Rec1, read-out: IC50 in cell proliferation assay) was 5.27 µM and the IC50 (Homo sapiens, SHP77, read-out: IC50 in cell proliferation assay) was > 31.6 µM. It also gave an IC50 (Homo sapiens, SK-BR-3, read-out: IC50 in cell proliferation assay) of 2.04 µM, an IC50 (Homo sapiens, SK-N-AS, read-out: IC50 in cell proliferation assay) of 2.37 µM and an IC50 (Homo sapiens, SK-N-FI, read-out: IC50 in cell proliferation assay) of 2.92 µM. For the same compound, the IC50 (Homo sapiens, SK-N-MC, read-out: IC50 in cell proliferation assay) was 4.76 µM, the IC50 (Homo sapiens, SK-N-SH, read-out: IC50 in cell proliferation assay) was 3.61 µM and the IC50 (Homo sapiens, SNU-5, read-out: IC50 in cell proliferation assay) was 30.2 µM. For the same compound, the IC50 (Homo sapiens, SNU-16, read-out: IC50 in cell proliferation assay) was 0.773 µM, the IC50 (Homo sapiens, SNU-C2B, read-out: IC50 in cell proliferation assay) was 15.7 µM and the IC50 (Homo sapiens, SU-DHL-1, read-out: IC50 in cell proliferation assay) was 2.78 µM. For the same compound, the IC50 (Homo sapiens, SU-DHL-6, read-out: IC50 in cell proliferation assay) was 8.19 µM, the IC50 (Homo sapiens, SUP-T1, read-out: IC50 in cell proliferation assay) was 2.46 µM and the IC50 (Homo sapiens, SW48, read-out: IC50 in cell proliferation assay) was 2.84 µM. The IC50 (Homo sapiens, SW480, read-out: IC50 in cell proliferation assay) was 3.6 µM, the IC50 (Homo sapiens, SW626, read-out: IC50 in cell proliferation assay) was 3.91 µM and the IC50 (Homo sapiens, SW780, read-out: IC50 in cell proliferation assay) was 30.7 µM. It also gave an IC50 (Homo sapiens, SW837, read-out: IC50 in cell proliferation assay) of 7.36 µM, an IC50 (Homo sapiens, SW872, read-out: IC50 in cell proliferation assay) of 2.46 µM and an IC50 (Homo sapiens, SW900, read-out: IC50 in cell proliferation assay) of 9.13 µM. The IC50 (Homo sapiens, SW948, read-out: IC50 in cell proliferation assay) was 1.68 µM, the IC50 (Homo sapiens, SW982, read-out: IC50 in cell proliferation assay) was 2.26 µM and the IC50 (Homo sapiens, SW-620, read-out: IC50 in cell proliferation assay) was 1.9 µM. For the same compound, the IC50 (Homo sapiens, T98G, read-out: IC50 in cell proliferation assay) was 3.47 µM, the IC50 (Homo sapiens, TCC-SUP, read-out: IC50 in cell proliferation assay) was 1.29 µM and the IC50 (Homo sapiens, THP-1, read-out: IC50 in cell proliferation assay) was 0.981 µM. The IC50 (Homo sapiens, U2OS, read-out: IC50 in cell proliferation assay) was 3.38 µM, the IC50 (Homo sapiens, U-87 MG, read-out: IC50 in cell proliferation assay) was > 31.6 µM and the IC50 (Homo sapiens, U-118-MG, read-out: IC50 in cell proliferation assay) was 4.22 µM. The IC50 (Homo sapiens, UMUC3, read-out: IC50 in cell proliferation assay) was 2.89 µM, the IC50 (Hs766T, read-out: IC50 in cell proliferation assay) was 4.7 µM and the IC50 (L-82, read-out: IC50 in cell proliferation assay) was 3.03 µM. It also gave an IC50 (Rh30, read-out: IC50 in cell proliferation assay) of 3 µM.
